Test results reported in PMC3463507 (ChemMedChem, 2012).
pIC50, pKd: −log10 of the molar value. Like-named read-outs stand apart in the source and are kept apart here.

Experiments:
BaDHPS [1] = biological target: T1, BaDHPS (Bacillus anthracis, UniProt Q81VW8); format: binding; conditions: 25 °C, pH 7.6
BaDHPS [2] = biological target: T1, BaDHPS; assay: biochemical; format: biochemical; conditions: for inhibition at 250 µM: read-out: Enzyme Inhibition Activity% @250μM
BaDHPS [3] = biological target: T1, BaDHPS; assay: biochemical; format: binding; conditions: for SPR kd: 25 °C; for kon: read-out: SPR ka

T1 sequence (Q81VW8 1-280): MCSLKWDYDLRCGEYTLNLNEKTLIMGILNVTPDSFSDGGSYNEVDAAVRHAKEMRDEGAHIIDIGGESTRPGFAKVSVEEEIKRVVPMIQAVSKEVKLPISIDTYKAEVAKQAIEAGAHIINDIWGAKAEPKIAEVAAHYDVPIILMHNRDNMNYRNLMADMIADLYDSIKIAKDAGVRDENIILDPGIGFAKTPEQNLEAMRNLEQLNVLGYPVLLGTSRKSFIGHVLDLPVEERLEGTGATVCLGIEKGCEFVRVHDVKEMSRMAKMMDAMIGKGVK

| SMILES | ITC N (stoichiometry of the interaction) (BaDHPS [1]) | ITC ΔG (BaDHPS [1]) | ITC ΔH (BaDHPS [1]) | ITC −TΔS (BaDHPS [1]) | pIC50 (BaDHPS [2]) | inhibition at 250 µM (BaDHPS [2]) | SPR kd (BaDHPS [3]) | kon (BaDHPS [3]) | pKd (BaDHPS [3]; read-out: SPR KD) | pKd (BaDHPS [3]; read-out: SPR KD(eq)) | pKd (BaDHPS [3]; SPR KD) | pKd (BaDHPS [3]; SPR KD(eq)) | IC50 (BaDHPS [2]) |
| --- | --- | --- | --- | --- | --- | --- | --- | --- | --- | --- | --- | --- | --- |
| CC(CC(=O)O)c1n[nH]c2nc(N)[nH]c(=O)c2c1=O (stereo not shown) [Compound 24, 3-(7-Amino-4,5-dioxo-1,4,5,6-tetrahydropyrimido[4,5-c]pyridazin-3-yl)butanoic acid] | 0.8 | -8.6 kcal/mol | -7.5 kcal/mol | -1.1 kcal/mol | 4.24 | 75.8% | 3.39(1) × 10^−1 s^−1 | 643000 M⁻¹ s⁻¹ | – | – | – | – | – |
| Cn1nc(CCC(=O)O)c(=O)c2c(=O)[nH]c(N)nc21 [Compound 18, 3-(7-Amino-1-methyl-4,5-dioxo-1,4,5,6-tetrahydropyrimido[4,5-c]pyridazin-3-yl)propanoic acid] | – | – | – | – | – | 65% | – | – | – | – | – | – | – |
| Nc1nc2[nH]nc(CCC(=O)O)c(=O)c2c(=O)[nH]1 [Compound 25, 3-(7-Amino-4,5-dioxo-1,4,5,6-tetrahydropyrimido[4,5-c]pyridazin-3-yl)propanoic acid] | 0.7 | -8.94 kcal/mol | -10.4 kcal/mol | 1.46 kcal/mol | 4.44 | 91.8% | 3.14(1) × 10^−1 s^−1 | 442000 M⁻¹ s⁻¹ | 6.15 | 6.15 | – | – | – |
| Cn1nc(CC(=O)O)c(=O)c2c(=O)[nH]c(N)nc21 [Compound 16, 2-(7-Amino-1-methyl-4,5-dioxo-1,4,5,6-tetrahydropyrimido[4,5-c]pyridazin-3-yl)acetic acid] | – | – | – | – | 4.49 | 96% | 6.94(6) × 10^−2 s^−1 | 342000 M⁻¹ s⁻¹ | – | – | 6.69 | 6.72 | – |
| Cn1nc(C(=O)O)c(=O)c2c(=O)[nH]c(N)nc21 [Compound 5, 7-Amino-1-methyl-4,5-dioxo-1,4,5,6-tetrahydropyrimido[4,5-c]pyridazine-3-carboxylic acid] | – | – | – | – | – | 32.4% | – | – | – | – | – | – | no detectable IC50 value |
| COC(=O)CCc1n[nH]c2nc(N)[nH]c(=O)c2c1=O [Compound 22, Methyl 3-(7-amino-4,5-dioxo-1,4,5,6-tetrahydropyrimido[4,5-c]pyridazin-3-yl)propanoate] | – | – | – | – | 3.59 | 33% | – | – | – | – | – | – | – |
| CC(C(=O)O)c1n[nH]c2nc(N)[nH]c(=O)c2c1=O (stereo not shown) [Compound 19, 2-(7-Amino-4,5-dioxo-1,4,5,6-tetrahydropyrimido[4,5-c]pyridazin-3-yl)propanoic acid] | 0.9 | -9.65 kcal/mol | -8.7 kcal/mol | -0.95 kcal/mol | – | 95.3% | 4.39(3) × 10^−2 s^−1 | 366000 M⁻¹ s⁻¹ | – | – | 6.92 | 6.91 | – |
| CC(CC(=O)O)c1nn(C)c2nc(N)[nH]c(=O)c2c1=O (stereo not shown) [Compound 17, 3-(7-Amino-1-methyl-4,5-dioxo-1,4,5,6-tetrahydropyrimido[4,5-c]pyridazin-3-yl)butanoic acid] | – | – | – | – | 3.84 | 52.5% | – | – | – | – | – | – | – |
| Nc1nc2[nH]nc(CC(=O)O)c(=O)c2c(=O)[nH]1 [Compound 23, 2-(7-Amino-4,5-dioxo-1,4,5,6-tetrahydropyrimido[4,5-c]pyridazin-3-yl)acetic acid] | – | – | – | – | 4.74 | 91% | 4.35(3) × 10^−2 s^−1 | 419000 M⁻¹ s⁻¹ | – | – | 6.98 | 6.96 | – |
